The target of one assay is NSP14 (Severe acute respiratory syndrome coronavirus 2, UniProt P0DTD1). Description: NSP14 MTase inhibition assay at 37° C. (MTase-Glo SAH detection). To be noted: 0.3 nM NSP14, 2.5 μM SAM, 2.5 μM GpppA RNA, 45 min at 37° C.; read-out: Nsp14 Mtase Inh. IC50. The assay is classed as biochemical, SARS-CoV-2. How it is done:
NSP14 MTase assay at 37° C. (0.3 nM NSP14 as final enzyme concentration)
The NSP14 MTase assay at 37° C. is carried out in 384-well flat bottom polystyrene microplates (Greiner, 781075). Per well, 10 μl of 1×NSP14 reaction buffer (50 mM Tris-HCl, pH 7.5, 6 mM KCl, 1.25 mM MgCl2, 1 mM DTT, and 0.01% Tween-20) are dispensed in columns 1-23 using a Thermo Multidrop Combi dispenser (Thermo Scientific). 0.1 μl of serially diluted compounds in DMSO are dispensed into columns 1-22 of the assay microplates with a Janus 384 MDT NanoHead (PerkinElmer). In wells of column 23, which serve as negative controls, no compounds are added.
The NSP14 reaction is started by adding 4 μl of a 4× substrate solution containing S-adenosyl methionine (SAM, 10 μM) and GpppA RNA (10 μM) prepared in 1×NSP14 reaction buffer. Any addition of reagents is followed by a 30 second centrifugation at 500×g to ensure that all liquid was collected at the bottom of the well. The final concentrations of NSP14, SAM, and GpppA RNA are 0.3 nM, 2.5 μM, and 2.5 μM, respectively. The final reaction volume is 16 μl. Plates are sealed and incubated for 45 min at 37° C.
For SAH detection, 1 μl 5× MTase-Glo™ Reagent (Promega) is added to each well, plates are mixed for 1-2 minutes and incubated at room temperature for 30 minutes. 5 μl of room-temperature MTase-Glo™ Detection Solution (Promega) is added to each well, plates are mixed for 1-2 minutes and incubated at room temperature for 30 minutes. Luminescence signals of each well are recorded in relative light units (RLUs) using a Biotek Synergy Neo plate reader (BioTek, Winooski, VT). The SAH production is normalized against the positive control (PK, column 24) and negative control (NK, column 23) as follows: normalized % inhibition=100×(RLUsample-RLUaverageNK)/(RLUaveragePK-RLUaverageNK).
A word on the IC50: it is the concentration needed to halve the response being measured. Consider `Cc1c(S(=O)(=O)c2ccc3[nH]ncc3c2)cc(C(=O)N[C@@H]2CCN(c3cc(C#N)ccn3)C2)n1C` [A.79], for which the IC50 was 0.6 nM. On to `Cc1c(S(=O)(=O)c2ccc3[nH]nc(F)c3c2)cc(C(=O)N[C@@H]2CCN(c3ccnnc3)C2)n1C` [A.112], for which the half-inhibitory concentration (IC50) came to 0.53 nM. As to `Cc1c(S(=O)(=O)c2ccc3[nH]ncc3c2)cc(C(=O)NC2CCCN(c3ncc(F)cn3)C2)n1C` (centres unmarked) [A.77], the IC50 is 7.9 nM. On the same count and under the same terms, then `Cc1c(S(=O)(=O)c2ccccc2)cc(C(=O)NCc2c(F)ccc3occc23)n1C` [A.20], with 22 nM. With `Cc1c(S(=O)(=O)c2ccc3[nH]ncc3c2)cc(C(=O)N[C@@H]2CCN(c3ccnnc3)C2)n1C` [A.78], the half-inhibitory concentration (IC50) is 0.53 nM. Take `Cc1c(S(=O)(=O)c2ccc3[nH]ncc3c2)cc(C(=O)N[C@@H]2CCN(c3ccc(C(F)(F)F)cn3)C2)n1C` [A.65]: the concentration for half-maximal inhibition (IC50) was determined as 1 nM. On the same count and under the same terms, the value for `Cc1c(S(=O)(=O)c2ccc3nn[nH]c3c2)cc(C(=O)NCc2c(F)ccc3occc23)n1C` [A.31, 4-((1H-benzo[d][1,2,3]triazol-6-yl)sulfonyl)-N-((5-fluorobenzofuran-4-yl)methyl)-1,5-dimethyl-1H-pyrrole-2-carboxamide] was 315 nM; that for `Cc1c(S(=O)(=O)c2ccc3[nH]ncc3c2)cc(C(=O)NC2CCN(c3ncc(F)cn3)CC2)n1C` [A.35] was 0.56 nM; that for `Cc1c(S(=O)(=O)c2ccc3c(cnn3C)c2)cc(C(=O)NCc2c(F)ccc3occc23)n1C` [A.19] was 21 nM. Still for that read-out and setting: then `Cc1c(S(=O)(=O)c2ccc3[nH]ncc3c2)cc(C(=O)N[C@@H]2CCN(c3nccc(C#N)n3)C2)n1C` [A.45], with 0.37 nM. `COCCn1c(C(=O)N[C@@H]2CCN(c3ncc(F)cn3)C2)cc(S(=O)(=O)c2ccc3[nH]ncc3c2)c1C` [A.91]: the 50% inhibitory concentration (IC50) worked out at 0.17 nM. On the same count and under the same terms, the value for `Cc1c(S(=O)(=O)c2cccc(C#N)c2)cc(C(=O)NCc2cccc3cnn(C)c23)n1C` [A.6, 4-(3-cyanophenyl)sulfonyl-1,5-dimethyl-N-[(1-methylindazol-7-yl)methyl]pyrrole-2-carboxamide] was 1.7 nM.

On to `Cc1c(S(=O)(=O)c2ccc3[nH]ncc3c2)cc(C(=O)N[C@H]2C[C@@H](Nc3ncc(F)cn3)C2)n1C` [A.97], for which the concentration for half-maximal inhibition (IC50) is 13 nM. For the compound `COc1ccccc1CNC(=O)c1cc(S(=O)(=O)c2ccc3c(cnn3C)c2)c(C)n1C` [A.23], the IC50 worked out at 68 nM. As for `Cc1c(S(=O)(=O)c2ccc3[nH]ncc3c2)cc(C(=O)N[C@@H]2CCN(c3ccc(C(F)(F)F)cc3)C2)n1C` [A.123], the IC50 is 8.6 nM. Still for that read-out and setting: then `Cc1c(S(=O)(=O)c2cnc3c(cnn3C)c2)cc(C(=O)NCc2cccc3cnn(C)c23)n1C` [A.29], with 160 nM; and `O=C(N[C@@H]1CCN(c2ncc(F)cn2)C1)c1cc(S(=O)(=O)c2ccc3[nH]ncc3c2)c2n1CCC2` [A.68], with 0.36 nM. For the compound `Cc1c(S(=O)(=O)c2ccc3[nH]ncc3c2)cc(C(=O)N[C@@H]2CCN(c3cccc(C#N)c3C#N)C2)n1C` [A.109], the IC50 was < 0.15 nM. Same read-out and setting: then `Cc1c(S(=O)(=O)c2ccc3[nH]ncc3c2)cc(C(=O)N[C@@H]2CCN(c3ncccc3C#N)C2)n1C` [A.37], with < 0.15 nM. On the same count and under the same terms, the value for `Cc1c(S(=O)(=O)c2ccc3[nH]ncc3c2)cc(C(=O)N[C@@H]2CCN(c3ncc(Cl)cn3)C2)n1C` [A.42] was 0.42 nM; that for `CC(=O)Nc1ccc(S(=O)(=O)c2cc(C(=O)NCc3c(F)ccc4occc34)n(C)c2C)cc1` [A.30] was 243 nM; that for `COc1cnc(N2CC[C@@H](NC(=O)c3cc(S(=O)(=O)c4ccc5[nH]ncc5c4)c(C)n3C)C2)cn1` [A.113] was < 0.15 nM. In the case of `Cc1c(S(=O)(=O)c2ccc3[nH]ncc3c2)cc(C(=O)N[C@@H]2CCN(c3cccc(C(F)(F)F)c3)C2)n1C` [A.100], the IC50 was found to be 2.9 nM.

Take `Cc1c(S(=O)(=O)c2ccc3[nH]ncc3c2)cc(C(=O)N[C@H]2CN(c3ccc(C#N)cn3)CC23CC3)n1C` [A.110]: the IC50 is 0.7 nM. On the same count and under the same terms, then `Cc1c(S(=O)(=O)c2ccc3[nH]ncc3c2)cc(C(=O)N[C@@H]2CCN(c3cc(C(F)(F)F)ccn3)C2)n1C` [A.74], with 0.57 nM; and `Cc1c(S(=O)(=O)c2ccc3[nH]ncc3c2)cc(C(=O)N[C@@H]2CCN(c3cccnn3)C2)n1C` [A.99], with 0.38 nM; and `Cc1c(S(=O)(=O)c2ccc3[nH]ncc3c2)cc(C(=O)N[C@@H]2CCN(c3ccc(F)nc3)C2)n1C` [A.56], with 0.2 nM.

Still in this assay, the particulars now being: 37° C., 0.3 nM NSP14, 2.5 μM SAM, 2.5 μM GpppA RNA; read-out: Nsp14 Mtase Inh. IC50.
Take `Cc1[nH]c(=O)c2ccccc2c1CNC(=O)c1cc(S(=O)(=O)c2ccc3[nH]nc(F)c3c2)c(C)n1C` [B.124]: the concentration for half-maximal inhibition (IC50) was 0.36 nM. On to `Cc1c(S(=O)(=O)c2cc(Cl)c3[nH]ncc3c2)cc(C(=O)NCc2cccc3cnn(C4CC4)c23)n1C` [B.51], for which the IC50 worked out at 0.22 nM.

As for `Cc1c(S(=O)(=O)c2ccc3c(c2)c(O)nn3C)cc(C(=O)NCc2c(F)ccc3cnn(C4CC4)c23)n1C` [B.111], the 50% inhibitory concentration (IC50) came to 142 nM. On the same count and under the same terms, then `Cc1c(S(=O)(=O)c2cc(F)c3[nH]ncc3c2)cc(C(=O)NCc2cccc(CN3CCCC3)c2)n1C` [B.59], with 41 nM; and `Cc1c(S(=O)(=O)c2ccc3[nH]ncc3c2)cc(C(=O)N[C@H]2CCc3c(F)ccc(F)c32)n1C` (single isomer, unassigned) [B.139], with 1.3 nM. Same read-out and setting: the value for `Cc1c(S(=O)(=O)c2ccc3[nH]ncc3c2)cc(C(=O)NCc2c(F)cccc2OCCN(C)C)n1C` [B.78] was 2 nM; that for `Cc1c(S(=O)(=O)c2ccc3[nH]ncc3c2)cc(C(=O)NCc2cncn2C)n1C` [B.146] was 29 nM; that for `Cc1c(S(=O)(=O)c2cc(F)c3[nH]ncc3c2)cc(C(=O)NCc2c[nH]c(=O)c3ccccc23)n1C` [B.109] was 0.24 nM. With `Cc1c(S(=O)(=O)c2ccc3[nH]nc(F)c3c2)cc(C(=O)NCc2c[nH]c(=O)c3ccccc23)n1C` [B.95], the IC50 is 2.2 nM. The same measure, in the same setting: then `Cc1c(S(=O)(=O)c2ccc3[nH]ncc3c2)cc(C(=O)NCc2cccc3c2ccc(=O)n3C)n1C` [B.33], with 0.35 nM; and `Cc1c(S(=O)(=O)c2ccc3[nH]nc(F)c3c2)cc(C(=O)NCc2c(F)ccc3cnn(C4CC4)c23)n1C` [B.46], with 0.53 nM. For the compound `Cc1c(S(=O)(=O)c2ccc3[nH]ncc3n2)cc(C(=O)NCc2cccc3cnn(C4CC4)c23)n1C` [B.50], the 50% inhibitory concentration (IC50) is 51 nM. Consider `Cc1c(S(=O)(=O)c2ccc3[nH]ncc3c2)cc(C(=O)NCc2c(F)cnn2C)n1C` [B.154], for which the IC50 stood at 0.56 nM. For the compound `Cc1c(S(=O)(=O)c2ccc3[nH]nc(C#N)c3c2)cc(C(=O)NCc2cccc3cnn(C)c23)n1C` [B.29], the IC50 worked out at 138 nM.

`Cc1c(S(=O)(=O)c2ccc3[nH]nc(F)c3c2)cc(C(=O)NC2CCc3c2ccc(=O)n3C)n1C` (racemic) [B.178]: the IC50 worked out at 21 nM.

`Cc1c(S(=O)(=O)c2cc(C3CC3)c3[nH]ncc3c2)cc(C(=O)NCc2cccc3cnn(C4CC4)c23)n1C` [B.41]: the IC50 amounted to 50 nM. Consider `Cc1c(S(=O)(=O)c2ccc3[nH]ncc3c2)cc(C(=O)NCc2cc(F)cc3cnn(C)c23)n1C` [B.96], for which the IC50 worked out at 1 nM. On to `Cc1c(S(=O)(=O)c2ccc3[nH]ncc3c2)cc(C(=O)NCc2c[nH]c(=O)c3cnn(C)c23)n1C` [B.115], for which the half-inhibitory concentration (IC50) was determined as 0.17 nM. Same read-out and setting: the value for `Cc1c(S(=O)(=O)c2ccc3[nH]ncc3c2)cc(C(=O)NCc2c(F)ccc3c2CCCO3)n1C` [B.57] was < 0.15 nM; that for `COc1nccc(F)c1CNC(=O)c1cc(S(=O)(=O)c2ccc3[nH]ncc3c2)c(C)n1C` [B.112] was < 0.15 nM.

For the origin of these results see patent US20260226034A1 (The Rockefeller University, priority 2023, published 2026).
